In paper PMC8162404, “Proteomimetic surface fragments distinguish targets by function” (Chemical Science, 2020):

Assays:
Assay in all cases: Pull-down assay with immobilized protein and LSM libraries
[1] = target: T1, CaM (Bos taurus, UniProt P62157); type: binding, bovine; conditions: H12 library; 1:2 stoichiometry assumed; read-out: Surface mapping KD (apparent)
T1 construct: made in house; host or cells: E. coli BL21 (DE3)
Procedure, shortened: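 CaM buffer was 20 mM HEPES pH 7.4, 150 mM NaCl, 5 mM CaCl2. LSM sublibrary members ([…]) incubated 30 min, RT, with equimolar His-tagged protein on Co-NTA resin. HPLC-MS measured unbound probes; bound fraction relative to resin-only background gave dissociation constants.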

[2] = target: T2, Gal-1 (Homo sapiens, UniProt P09382); type: binding; conditions: H12 library; 1:1 binding assumed; read-out: Surface mapping KD (apparent)
T2 construct: made in house; host or cells: E. coli BL21(DE3)
Procedure, shortened: (§1)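 Buffers were HEPES pH 7.4 with 150 mM NaCl, plus 1 mM TCEP and 1 mM CaCl2 (50 mM HEPES) for S100A4 and S100B, 1 mM TCEP for Gal-1, and no additive for RecQ-WH. Immobilized protein at 64 µM was equilibrated 30 min with the LSM sublibrary, and unbound probes were measured by LC-MS.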

[3] = target: T3, S100A4 (Homo sapiens, UniProt P26447); type: binding; conditions: H12 library; 1:1 binding assumed; read-out: Surface mapping KD (apparent)
T3 construct: made in house; host or cells: Escherichia coli BL21(DE3)
Procedure, shortened: as §1

[4] = target: T4, S100B (Homo sapiens, UniProt P04271); type: binding; conditions: H12 library; 1:1 binding assumed; read-out: Surface mapping KD (apparent)
T4 construct: made in house; host or cells: Escherichia coli BL21(DE3)
T4 sequence (P04271 1-92): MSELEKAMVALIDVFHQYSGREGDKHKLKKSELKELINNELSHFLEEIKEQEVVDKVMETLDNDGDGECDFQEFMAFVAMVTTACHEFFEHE
Procedure, shortened: as §1

T3 sequence (P26447 whole entry): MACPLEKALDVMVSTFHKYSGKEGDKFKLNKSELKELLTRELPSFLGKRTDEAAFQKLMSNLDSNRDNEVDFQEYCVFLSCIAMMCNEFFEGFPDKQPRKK
T2 sequence (P09382 whole entry): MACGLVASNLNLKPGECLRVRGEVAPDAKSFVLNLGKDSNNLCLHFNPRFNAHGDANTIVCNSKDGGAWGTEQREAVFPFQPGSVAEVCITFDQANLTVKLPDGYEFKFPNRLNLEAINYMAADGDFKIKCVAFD

Row | Structure (SMILES) | Kd [1] | Kd [2] | Kd [3] | Kd [4]
1 | CC(C)[C@@H](CC(=O)N[C@H]1CCC[C@@H]1C(=O)N[C@H]1CCC[C@@H]1C(N)=O)NC(=O)[C@H]1CCC[C@@H]1NC(=O)[C@H]1CCC[C@@H]1NC(=O)C[C@H](Cc1ccccc1)NC(=O)[C@H]1CCC[C@@H]1NC(=O)[C@H]1CCC[C@@H]1N [H12 FV] | 157 µM | 170 µM | 207 µM | 46 µM
2 | NC(=O)[C@H]1CCC[C@@H]1NC(=O)[C@H]1CCC[C@@H]1NC(=O)C[C@H](Cc1c[nH]c2ccccc12)NC(=O)[C@H]1CCC[C@@H]1NC(=O)[C@H]1CCC[C@@H]1NC(=O)C[C@H](Cc1ccccc1)NC(=O)[C@H]1CCC[C@@H]1NC(=O)[C@H]1CCC[C@@H]1N [H12 FW] | 134 µM | 136 µM | 75 µM | 10 µM
3 | CC[C@H](C)[C@@H](CC(=O)N[C@H]1CCC[C@@H]1C(=O)N[C@H]1CCC[C@@H]1C(=O)N[C@H](CC(=O)N[C@H]1CCC[C@@H]1C(=O)N[C@H]1CCC[C@@H]1C(N)=O)Cc1ccccc1)NC(=O)[C@H]1CCC[C@@H]1NC(=O)[C@H]1CCC[C@@H]1N [H12 IF] | 28 µM | 376 µM | 32 µM | 22 µM
4 | CC[C@H](C)[C@@H](CC(=O)N[C@H]1CCC[C@@H]1C(=O)N[C@H]1CCC[C@@H]1C(N)=O)NC(=O)[C@H]1CCC[C@@H]1NC(=O)[C@H]1CCC[C@@H]1NC(=O)C[C@@H](NC(=O)[C@H]1CCC[C@@H]1NC(=O)[C@H]1CCC[C@@H]1N)[C@@H](C)CC [H12 II] | 67 µM | 395 µM | 79 µM | 25 µM
5 | CC[C@H](C)[C@@H](CC(=O)N[C@H]1CCC[C@@H]1C(=O)N[C@H]1CCC[C@@H]1C(=O)N[C@H](CC(=O)N[C@H]1CCC[C@@H]1C(=O)N[C@H]1CCC[C@@H]1C(N)=O)CC(C)C)NC(=O)[C@H]1CCC[C@@H]1NC(=O)[C@H]1CCC[C@@H]1N [H12 IL] | 67 µM | 395 µM | 79 µM | 25 µM
6 | CC[C@H](C)[C@@H](CC(=O)N[C@H]1CCC[C@@H]1C(=O)N[C@H]1CCC[C@@H]1C(=O)N[C@@H](CCSC)CC(=O)N[C@H]1CCC[C@@H]1C(=O)N[C@H]1CCC[C@@H]1C(N)=O)NC(=O)[C@H]1CCC[C@@H]1NC(=O)[C@H]1CCC[C@@H]1N [H12 IM] | 211 µM | 378 µM | 381 µM | 74 µM
7 | CC[C@H](C)[C@@H](CC(=O)N[C@H]1CCC[C@@H]1C(=O)N[C@H]1CCC[C@@H]1C(=O)N[C@H](CC(=O)N[C@H]1CCC[C@@H]1C(=O)N[C@H]1CCC[C@@H]1C(N)=O)C(C)C)NC(=O)[C@H]1CCC[C@@H]1NC(=O)[C@H]1CCC[C@@H]1N [H12 IV] | 270 µM | 463 µM | 373 µM | 57 µM
8 | CC[C@H](C)[C@@H](CC(=O)N[C@H]1CCC[C@@H]1C(=O)N[C@H]1CCC[C@@H]1C(=O)N[C@H](CC(=O)N[C@H]1CCC[C@@H]1C(=O)N[C@H]1CCC[C@@H]1C(N)=O)Cc1c[nH]c2ccccc12)NC(=O)[C@H]1CCC[C@@H]1NC(=O)[C@H]1CCC[C@@H]1N [H12 IW] | 19 µM | 368 µM | 28 µM | 11 µM
9 | CC[C@H](C)[C@@H](CC(=O)N[C@H]1CCC[C@@H]1C(=O)N[C@H]1CCC[C@@H]1C(=O)N[C@H](CC(=O)N[C@H]1CCC[C@@H]1C(=O)N[C@H]1CCC[C@@H]1C(N)=O)Cc1ccc(O)cc1)NC(=O)[C@H]1CCC[C@@H]1NC(=O)[C@H]1CCC[C@@H]1N [H12 IY] | 28 µM | 347 µM | 100 µM | 56 µM
10 | NCCCC[C@@H](CC(=O)N[C@H]1CCC[C@@H]1C(=O)N[C@H]1CCC[C@@H]1C(=O)N[C@H](CC(=O)N[C@H]1CCC[C@@H]1C(=O)N[C@H]1CCC[C@@H]1C(N)=O)Cc1ccccc1)NC(=O)[C@H]1CCC[C@@H]1NC(=O)[C@H]1CCC[C@@H]1N [H12 KF] | 239 µM | 292 µM | 416 µM | 66 µM
11 | CC(C)C[C@@H](CC(=O)N[C@H]1CCC[C@@H]1C(=O)N[C@H]1CCC[C@@H]1C(N)=O)NC(=O)[C@H]1CCC[C@@H]1NC(=O)[C@H]1CCC[C@@H]1NC(=O)C[C@H](CCCCN)NC(=O)[C@H]1CCC[C@@H]1NC(=O)[C@H]1CCC[C@@H]1N [H12 KL] | 324 µM | 316 µM | 89 µM | 68 µM
12 | NCCCC[C@@H](CC(=O)N[C@H]1CCC[C@@H]1C(=O)N[C@H]1CCC[C@@H]1C(=O)N[C@H](CC(=O)N[C@H]1CCC[C@@H]1C(=O)N[C@H]1CCC[C@@H]1C(N)=O)Cc1c[nH]c2ccccc12)NC(=O)[C@H]1CCC[C@@H]1NC(=O)[C@H]1CCC[C@@H]1N [H12 KW] | 51 µM | 161 µM | 456 µM | 39 µM
13 | CC(C)C[C@@H](CC(=O)N[C@H]1CCC[C@@H]1C(=O)N[C@H]1CCC[C@@H]1C(=O)N[C@H](CC(=O)N[C@H]1CCC[C@@H]1C(=O)N[C@H]1CCC[C@@H]1C(N)=O)Cc1ccccc1)NC(=O)[C@H]1CCC[C@@H]1NC(=O)[C@H]1CCC[C@@H]1N [H12 LF] | 28 µM | 376 µM | 32 µM | 22 µM
14 | CC[C@H](C)[C@@H](CC(=O)N[C@H]1CCC[C@@H]1C(=O)N[C@H]1CCC[C@@H]1C(N)=O)NC(=O)[C@H]1CCC[C@@H]1NC(=O)[C@H]1CCC[C@@H]1NC(=O)C[C@H](CC(C)C)NC(=O)[C@H]1CCC[C@@H]1NC(=O)[C@H]1CCC[C@@H]1N [H12 LI] | 67 µM | 415 µM | 143 µM | 37 µM
15 | CC(C)C[C@@H](CC(=O)N[C@H]1CCC[C@@H]1C(=O)N[C@H]1CCC[C@@H]1C(N)=O)NC(=O)[C@H]1CCC[C@@H]1NC(=O)[C@H]1CCC[C@@H]1NC(=O)C[C@H](CC(C)C)NC(=O)[C@H]1CCC[C@@H]1NC(=O)[C@H]1CCC[C@@H]1N [H12 LL] | 67 µM | 415 µM | 131 µM | 46 µM
16 | CSCC[C@@H](CC(=O)N[C@H]1CCC[C@@H]1C(=O)N[C@H]1CCC[C@@H]1C(N)=O)NC(=O)[C@H]1CCC[C@@H]1NC(=O)[C@H]1CCC[C@@H]1NC(=O)C[C@H](CC(C)C)NC(=O)[C@H]1CCC[C@@H]1NC(=O)[C@H]1CCC[C@@H]1N [H12 LM] | 211 µM | 378 µM | 381 µM | 74 µM
17 | CC(C)C[C@@H](CC(=O)N[C@H]1CCC[C@@H]1C(=O)N[C@H]1CCC[C@@H]1C(=O)N[C@@H](CCCNC(=N)N)CC(=O)N[C@H]1CCC[C@@H]1C(=O)N[C@H]1CCC[C@@H]1C(N)=O)NC(=O)[C@H]1CCC[C@@H]1NC(=O)[C@H]1CCC[C@@H]1N [H12 LR] | 236 µM | 120 µM | 345 µM | 29 µM
18 | CC(C)C[C@@H](CC(=O)N[C@H]1CCC[C@@H]1C(=O)N[C@H]1CCC[C@@H]1C(=O)N[C@H](CC(=O)N[C@H]1CCC[C@@H]1C(=O)N[C@H]1CCC[C@@H]1C(N)=O)Cc1c[nH]c2ccccc12)NC(=O)[C@H]1CCC[C@@H]1NC(=O)[C@H]1CCC[C@@H]1N [H12 LW] | 19 µM | 368 µM | 28 µM | 11 µM
19 | CC(C)C[C@@H](CC(=O)N[C@H]1CCC[C@@H]1C(=O)N[C@H]1CCC[C@@H]1C(=O)N[C@H](CC(=O)N[C@H]1CCC[C@@H]1C(=O)N[C@H]1CCC[C@@H]1C(N)=O)Cc1ccc(O)cc1)NC(=O)[C@H]1CCC[C@@H]1NC(=O)[C@H]1CCC[C@@H]1N [H12 LY] | 28 µM | 347 µM | 100 µM | 56 µM
20 | CC[C@H](C)[C@@H](CC(=O)N[C@H]1CCC[C@@H]1C(=O)N[C@H]1CCC[C@@H]1C(N)=O)NC(=O)[C@H]1CCC[C@@H]1NC(=O)[C@H]1CCC[C@@H]1NC(=O)C[C@H](CCSC)NC(=O)[C@H]1CCC[C@@H]1NC(=O)[C@H]1CCC[C@@H]1N [H12 MI] | 101 µM | 281 µM | 358 µM | 54 µM
21 | N=C(N)NCCC[C@@H](CC(=O)N[C@H]1CCC[C@@H]1C(=O)N[C@H]1CCC[C@@H]1C(=O)N[C@H](CC(=O)N[C@H]1CCC[C@@H]1C(=O)N[C@H]1CCC[C@@H]1C(N)=O)Cc1ccccc1)NC(=O)[C@H]1CCC[C@@H]1NC(=O)[C@H]1CCC[C@@H]1N [H12 RF] | 96 µM | 202 µM | 140 µM | 40 µM
22 | CC[C@H](C)[C@@H](CC(=O)N[C@H]1CCC[C@@H]1C(=O)N[C@H]1CCC[C@@H]1C(N)=O)NC(=O)[C@H]1CCC[C@@H]1NC(=O)[C@H]1CCC[C@@H]1NC(=O)C[C@H](CCCNC(=N)N)NC(=O)[C@H]1CCC[C@@H]1NC(=O)[C@H]1CCC[C@@H]1N [H12 RI] | 252 µM | 194 µM | 245 µM | 56 µM
23 | CC(C)C[C@@H](CC(=O)N[C@H]1CCC[C@@H]1C(=O)N[C@H]1CCC[C@@H]1C(N)=O)NC(=O)[C@H]1CCC[C@@H]1NC(=O)[C@H]1CCC[C@@H]1NC(=O)C[C@H](CCCNC(=N)N)NC(=O)[C@H]1CCC[C@@H]1NC(=O)[C@H]1CCC[C@@H]1N [H12 RL] | 252 µM | 194 µM | 245 µM | 56 µM
